From US5573999A, “β-substituted cinnamic acid derivative” (BASF Aktiengesellschaft, priority 1991, dated 1996)

Tests used:
[1] = tested on: mitochondrial respiration; test: Inhibition of mitochondrial respiration (rate of reduction of cytochrome c in isolated mitochondria), yeast; format: biochemical, Saccharomyces cerevisiae; details: DMSO control
Source text: In order to determine the effect of the compounds according to the invention on mitochondrial respiration it is first necessary to isolate the mitochondria from the organisms being investigated. For this, in the case of the yeast Saccharomyces cerevisiae, the cells in a 30 to 40% strength suspension of the yeast in an aqueous solution of 0.6M mannitol+0.01M tris[hydroxymethyl]-aminomethane+0.002M disodium ethylenediaminetetraacetate (pH 6.8) are disrupted in a glass bead mill, and the extract is fractionated by differential centrifugation at 1000× g and 12000× g. The mitochondria are in the pellet from the 12000× g centrifugation.
(§1) Used as control is a mixture with the equivalent amount of pure DMSO. The inhibition at the concentration of agent in each case is then calculated as follows [formula] where ΔE is the change in extinction, at is the change in time, [formula] is the reaction rate for the control and [formula] is the reaction rate for the sample x.
(§2) The inhibition was determined in each case at a test substance concentration of 1.8/10^-5mol/l .

Plasmopara viticola = test: Activity against Plasmopara viticola on potted vines; format: in vivo; details: aqueous dispersion containing 250 ppm active ingredient, infected 8 days after spraying
Protocol: Leaves of potted vines of the Muller Thurgau variety were sprayed with an aqueous liquor which contained 80% of active ingredient and 20% of emulsifier in dry matter. To assess the duration of action of the active ingredient, after the sprayed-on layer had dried the plants were placed in a greenhouse for 8 days. The leaves were then infected with a suspension of Plasmopara viticola zoospores. The vines were then placed first in a chamber saturated with water vapor at 24° C. for 48 hours and then in a greenhouse at from 20° to 30° C. for 5 days. After this, to speed up sporangiophore discharge, the plants were again placed in the humidity chamber for 16 hours. The extent of fungus attack was then assessed on the undersides of the leaves.

[2] = tested on: mitochondrial respiration; test: Inhibition of mitochondrial respiration (rate of reduction of cytochrome c in isolated mitochondria), house fly; format: biochemical, Musca domestica; details: DMSO control
Source text: It is also possible similarly to isolate mitochondria from other organisms, e.g. from the phytopathogenic fungus Drechslera sorokiniana (synonym: Helminthosporium sativum), from the dermatophyte Trichophyton mentagrophytes, which is a human pathogen, and, for example, from the house fly (Musca domestica) as insect or from the spider mite Tetranychus urticae.
as §1, §2

[3] = tested on: wheat mildew (Erysiphe graminis var. tritici); test: Activity against wheat mildew on wheat seedlings; format: in vivo; details: aqueous dispersion containing 250 ppm active ingredient, assessed after 7 days
Protocol: Leaves of pot-grown wheat seedlings of the Fruhgold variety were sprayed with an aqueous liquor which contained 80% of active ingredient and 20% of emulsifier in dry matter and, 24 hours after the sprayed-on layer had dried, were dusted with spores of wheat mildew (Erysiphe graminis var. tritici). The test plants were then placed in a greenhouse at from 20° to 22° C. and from 75 to 80% relative humidity. The extent of mildew spread was assessed after 7 days.

| SMILES | % inhibition of respiration at 1.8 × 10^-5 mol/l test substance, Saccharomyces cerevisiae [1] [%] | fungal attack, Plasmopara viticola (Plasmopara viticola) [%] | % inhibition of respiration at 1.8 × 10^-5 mol/l test substance, Musca domestica [2] [%] | fungal attack, wheat mildew [3] [%] |
| --- | --- | --- | --- | --- |
| COC(=O)/C=C(/OC)c1ccccc1/C=C/c1csc(-c2ccc(C)cc2)n1 [Compound 1a.312] | 99 | 10 | – | – |
| COC(=O)/C=C(/OC)c1ccccc1COc1ccc(Oc2ccccc2)cc1 [Compound 1a.31] | – | 10 | – | – |
| CON=Cc1cccc(OCc2ccccc2/C(=C\C(=O)OC)OC)c1 [Compound 1a.62] | 87 | 10 | 74 | – |
| COC(=O)/C=C(/OC)c1ccccc1/C=C/c1csc(-c2ccc(F)cc2)n1 [Compound 1a.394, methyl 2-{2-[2-(4-fluorophenyl)-4-thiazolyl]-(E)-ethenyl}-(E)-β-methoxycinnamate] | 96 | 10 | 99 | – |
| COC(=O)/C=C(/OC)c1ccccc1COc1nc(-c2ccccc2)sc1C [Compound 1a.182] | 98 | 10 | – | – |
| COC(=O)/C=C(/OC)c1ccccc1/C=C/c1cccc(C(F)(F)F)c1 [Compound 1a.245] | 98 | – | 91 | 15 |
| COC(=O)/C=C(/OC)c1ccccc1/C=C/c1ccco1 [Compound 1a.290] | 98 | – | 86 | 15 |
| COC(=O)/C=C(/OC)c1ccccc1/C=C/c1cnn(-c2ccc(OC)cc2)c1 [Compound 1a.318] | 98 | 10 | – | – |
| CC/C(=C/C(=O)OC)c1ccccc1COc1ccccc1C [Compound 1a.110] | – | 10 | 12 | – |
| COC(=O)/C=C(/OC)c1ccccc1/C=C/c1ccc(C(F)(F)F)cc1 [Compound 1a.519] | 97 | – | 89 | – |
| COC(=O)/C=C(/OC)c1ccccc1/C=C\c1ccsc1 [Compound 1a.297] | 70 | – | 22 | – |
| COC(=O)/C=C(/OC)c1ccccc1/C=C\c1cnn(-c2ccc(Cl)cc2)c1 [Compound 1a.321] | 19 | 10 | – | – |
| COC(=O)/C=C(/OC)c1ccccc1/C=C/c1cc(-c2ccc(Cl)cc2)no1 [Compound 1a.300] | 98 | – | 93 | – |
| COC(=O)/C=C(/OC)c1ccccc1/C=C\c1noc(-c2ccc(Cl)cc2)c1C [Compound 1a.323] | 99 | 10 | – | – |
| COC(=O)/C=C(/OC)c1ccccc1/C=C/c1cc[nH]c1 [Compound 1a.288] | 50 | – | 22 | – |
| COC(=O)/C=C(/OC)c1ccccc1/C=C/c1nc(-c2ccc(F)cc2)no1 [Compound 1a.310] | 99 | 10 | – | – |
| COC(=O)/C=C(/OC)c1ccccc1/C=C/c1csc(-c2ccccc2)n1 [Compound 1a.306] | 98 | – | 96 | – |
| COC(=O)/C=C(/OC)c1ccccc1/C=C\c1ccoc1 [Compound 1a.293] | 65 | – | 27 | – |
